Measurements as given in patent publication US9771379B2, “N-(2-(2-amino-6-substituted-4,4a,5,6-tetrahydropyrano[3,4-d][1,3]OXAZIN-8a(8H)-yl)-thiazol-4-yl) amides” (Pfizer Inc., priority 2015, dated 2017).

Target: BACE1 enzyme (Homo sapiens (Human), UniProt P56817)
Assay: BACE1 Cell-Free Assay
Format: biochemical
Conditions: for IC50: fluorescence polarization, synthetic APP substrate, pH 4.5; for biological activity: stated in words, used to assign absolute stereochemistry
Source text: This assay measures the inhibition of the beta-secretase enzyme as it cleaves a non-native peptide.
A synthetic APP substrate that can be cleaved by beta-secretase having N-terminal biotin and made fluorescent by the covalent attachment of Oregon Green at the Cys residue is used to assay beta-secretase activity in the presence or absence of the inhibitory compounds. […] The BACE1 enzyme is affinity purified material from conditioned media of CHO-K1 cells that have been transfected with a soluble BACE construct (BACE1delta™96His). […] Plates are covered and incubated for 3 hours at 37° C. […] The activity of the beta-secretase enzyme is detected by changes in the fluorescence polarization that occur when the substrate is cleaved by the enzyme.

Sequence of BACE1 enzyme (P56817 46-457): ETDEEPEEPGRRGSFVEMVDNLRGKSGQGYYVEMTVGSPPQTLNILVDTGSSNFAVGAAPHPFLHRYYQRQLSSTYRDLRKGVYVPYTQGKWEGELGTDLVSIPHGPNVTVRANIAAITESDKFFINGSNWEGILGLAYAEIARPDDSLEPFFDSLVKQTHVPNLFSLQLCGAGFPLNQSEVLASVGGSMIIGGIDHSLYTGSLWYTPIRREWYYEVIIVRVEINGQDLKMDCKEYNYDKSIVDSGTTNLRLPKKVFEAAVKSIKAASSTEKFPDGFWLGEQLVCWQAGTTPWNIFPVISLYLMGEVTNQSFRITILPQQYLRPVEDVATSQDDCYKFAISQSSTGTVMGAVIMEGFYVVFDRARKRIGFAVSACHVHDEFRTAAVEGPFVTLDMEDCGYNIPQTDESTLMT

IC50 | biological activity | Structure (SMILES)
310 nM | active | NC1=N[C@@]2(c3nc(NC(=O)c4ccc(Cl)cn4)cs3)CO[C@@H](C(F)(F)F)C[C@H]2CO1 [Example 10a, N-(2-((4aR,6R,8aR)-2-amino-6-(trifluoromethyl)-4,4a,5,6-tetrahydropyrano[3,4-d][1,3]oxazin-8a(8H)-yl)thiazol-4-yl)-5-chloropicolinamide]
16700 nM | inactive | NC1=N[C@]2(c3nc(NC(=O)c4ccc(Cl)cn4)cs3)CO[C@H](C(F)(F)F)C[C@@H]2CO1 [Example 10b, N-(2-((4aS,6S,8aS)-2-amino-6-(trifluoromethyl)-4,4a,5,6-tetrahydropyrano[3,4-d][1,3]oxazin-8a(8H)-yl)thiazol-4-yl)-5-chloropicolinamide]
155 nM |  | Cc1cc(OC(F)F)cnc1C(=O)Nc1csc([C@]23CO[C@@H](C(F)(F)F)C[C@H]2COC(N)=N3)n1 [Example 11a, N-(2-((4aR,6R,8aR)-2-amino-6-(trifluoromethyl)-4,4a,5,6-tetrahydropyrano[3,4-d][1,3]oxazin-8a(8H)-yl)thiazol-4-yl)-5-(difluoromethoxy)-3-methylpicolinamide]
10800 nM |  | Cc1cc(OC(F)F)cnc1C(=O)Nc1csc([C@@]23CO[C@H](C(F)(F)F)C[C@@H]2COC(N)=N3)n1 [Example 11b, N-(2-((4aS,6S,8aS)-2-amino-6-(trifluoromethyl)-4,4a,5,6-tetrahydropyrano[3,4-d][1,3]oxazin-8a(8H)-yl)thiazol-4-yl)-5-(difluoromethoxy)-3-methylpicolinamide]
371 nM |  | NC1=N[C@@]2(c3nc(NC(=O)c4ccc(OC(F)F)cn4)cs3)CO[C@@H](C(F)(F)F)C[C@H]2CO1 [Example 12a, N-(2-((4aR,6R,8aR)-2-amino-6-(trifluoromethyl)-4,4a,5,6-tetrahydropyrano[3,4-d][1,3]oxazin-8a(8H)-yl)thiazol-4-yl)-5-(difluoromethoxy)picolinamide]
15000 nM |  | NC1=N[C@]2(c3nc(NC(=O)c4ccc(OC(F)F)cn4)cs3)CO[C@H](C(F)(F)F)C[C@@H]2CO1 [Example 12b, N-(2-((4aS,6S,8aS)-2-amino-6-(trifluoromethyl)-4,4a,5,6-tetrahydropyrano[3,4-d][1,3]oxazin-8a(8H)-yl)thiazol-4-yl)-5-(difluoromethoxy)picolinamide]
184 nM | active | NC1=N[C@@]2(c3nc(NC(=O)c4ncc(OC(F)F)cc4Cl)cs3)CO[C@@H](C(F)(F)F)C[C@H]2CO1 [Example 13a, N-(2-((4aR,6R,8aR)-2-amino-6-(trifluoromethyl)-4,4a,5,6-tetrahydropyrano[3,4-d][1,3]oxazin-8a(8H)-yl)thiazol-4-yl)-3-chloro-5-(difluoromethoxy)picolinamide]
6970 nM | inactive | NC1=N[C@]2(c3nc(NC(=O)c4ncc(OC(F)F)cc4Cl)cs3)CO[C@H](C(F)(F)F)C[C@@H]2CO1 [Example 13b, N-(2-((4aS,6S,8aS)-2-amino-6-(trifluoromethyl)-4,4a,5,6-tetrahydropyrano[3,4-d][1,3]oxazin-8a(8H)-yl)thiazol-4-yl)-3-chloro-5-(difluoromethoxy)picolinamide]

Continued, compound first:

Structure (SMILES) | IC50 | biological activity
C[C@H]1C[C@H]2COC(N)=N[C@@]2(c2nc(NC(=O)c3ccc(OC(F)F)cn3)cs2)CO1 [Example 1, N-(2-((4aR,6S,8aR)-2-amino-6-methyl-4,4a,5,6-tetrahydropyrano[3,4-d][1,3]oxazin-8a(8H)-yl)thiazol-4-yl)-5-(difluoromethoxy)picolinamide] | 214 nM | 
C[C@H]1C[C@H]2COC(N)=N[C@@]2(c2nc(NC(=O)c3ncc(OC(F)F)cc3Cl)cs2)CO1 [Example 2, N-(2-((4aR,6S,8aR)-2-amino-6-methyl-4,4a,5,6-tetrahydropyrano[3,4-d][1,3]oxazin-8a(8H)-yl)thiazol-4-yl)-3-chloro-5-(difluoromethoxy)picolinamide] | 123 nM | 
Cc1cc(OC(F)F)cnc1C(=O)Nc1csc([C@]23CO[C@@H](C)C[C@H]2COC(N)=N3)n1 [Example 3, N-(2-((4aR,6S,8aR)-2-amino-6-methyl-4,4a,5,6-tetrahydropyrano[3,4-d][1,3]oxazin-8a(8H)-yl)thiazol-4-yl)-5-(difluoromethoxy)-3-methylpicolinamide] | 85 nM | 
C[C@H]1C[C@H]2CCOC(N)=N[C@@]2(c2nc(NC(=O)c3ccc(OC(F)F)cn3)cs2)CO1 [Example 4, N-(2-((5aR,7S,9aR)-2-amino-7-methyl-5,5a,6,7-tetrahydro-4H-pyrano[3,4-d][1,3]oxazepin-9a(9H)-yl)thiazol-4-yl)-5-(difluoromethoxy)picolinamide] | 146 nM | 
Cc1cc(OC(F)F)cnc1C(=O)Nc1csc([C@]23CO[C@@H](C)C[C@H]2CCOC(N)=N3)n1 [Example 5, N-(2-((5aR,7S,9aR)-2-amino-7-methyl-5,5a,6,7-tetrahydro-4H-pyrano[3,4-d][1,3]oxazepin-9a(9H)-yl)thiazol-4-yl)-5-(difluoromethoxy)-3-methylpicolinamide] | 71 nM | 
C[C@H]1C[C@H]2[C@@H](CF)OC(N)=N[C@@]2(c2nc(NC(=O)c3ccc(OC(F)F)cn3)cs2)CO1 [Example 6, N-(2-((4S,4aR,6S,8aR)-2-amino-4-(fluoromethyl)-6-methyl-4,4a,5,6-tetrahydropyrano[3,4-d][1,3]oxazin-8a(8H)-yl)thiazol-4-yl)-5-(difluoromethoxy)picolinamide] | 270 nM | 
C[C@H]1C[C@H]2[C@@H](C(F)(F)F)OC(N)=N[C@@]2(c2nc(NC(=O)c3ccc(OC(F)F)cn3)cs2)CO1 [Example 7, N-(2-((4S,4aR,6S,8aR)-2-amino-6-methyl-4-(trifluoromethyl)-4,4a,5,6-tetrahydropyrano[3,4-d][1,3]oxazin-8a(8H)-yl)thiazol-4-yl)-5-(difluoromethoxy)picolinamide] | 112 nM | 
CC1(C)C[C@H]2COC(N)=N[C@@]2(c2nc(NC(=O)c3ccc(OC(F)F)cn3)cs2)CO1 [Example 8, N-(2-((4aR,8aR)-2-Amino-6,6-dimethyl-4,4a,5,6-tetrahydropyrano[3,4-d][1,3]oxazin-8a(8H)-yl)thiazol-4-yl)-5-(difluoromethoxy)picolinamide] | 610 nM | 
Cc1cc(OC(F)F)cnc1C(=O)Nc1csc([C@]23COC(C)(C)C[C@H]2COC(N)=N3)n1 [Example 9, N-(2-((4aR,8aR)-2-amino-6,6-dimethyl-4,4a,5,6-tetrahydropyrano[3,4-d][1,3]oxazin-8a(8H)-yl)thiazol-4-yl)-5-(difluoromethoxy)-3-methylpicolinamide] | 475 nM | 
Cc1cc(OC(F)F)cnc1C(=O)Nc1csc([C@]23COC4(CCC4)C[C@H]2COC(N)=N3)n1 [Example 15, N-(2-((4a′R,8a′R)-2′-amino-4a′,5′-dihydro-4′H-spiro[cyclobutane-1,6′-pyrano[3,4-d][1,3]oxazin]-8a′(8′H)-yl)thiazol-4-yl)-5-(difluoromethoxy)-3-methyl picolinamide] | 370 nM | 
N#Cc1ccc(C(=O)Nc2csc([C@]34COC5(CCC5)C[C@H]3COC(N)=N4)n2)nc1 [Example 16, N-(2-((4a′R,8a′R)-2′-amino-4a′,5′-dihydro-4′H-spiro [cyclobutane-1,6′-pyrano [3,4-d][1,3]oxazin]-8a′(8′H)-yl)thiazol-4-yl)-5-cyano picolinamide] | 395 nM | 
